In ChEMBL document CHEMBL1201862, “PubChem BioAssay data set” (2004):
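Each compound was tested at five concentrations against cells in 96-well plates for 48 hours. Abbreviation: GI50, concentration required for 50% inhibition of growth.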 The source made the active and inactive calls. Cut-off read from the data, not from the text of the source: active = GI50 up to about 1.1 µM and inactive = higher.

What was measured:
Assay in all cases: DTP human tumour cell line panel, 48 h
786-0 = system: 786-0
A498 = system: A498
A549 = system: A549
ACHN = system: ACHN
BT-549 = system: BT-549
CAKI-1 = system: CAKI-1
CCRF-CEM = system: CCRF-CEM
COLO 205 = system: COLO 205
DU-145 = system: DU-145
EKVX = system: EKVX
HCT-116 = system: HCT-116
HCT-15 = system: HCT-15
HL-60 = system: HL-60
HOP-62 = system: HOP-62
HOP-92 = system: HOP-92
HT-29 = system: HT-29
Hs-578T = system: Hs-578T
IGROV-1 = system: IGROV-1
K562 = system: K562
KM12 = system: KM12
LOX IMVI = system: LOX IMVI
M14 = system: M14
MCF7 = system: MCF7
MDA-MB-231 = system: MDA-MB-231
MDA-MB-435 = system: MDA-MB-435
MDA-N = system: MDA-N
MOLT-4 = system: MOLT-4
Malme-3M = system: Malme-3M
NCI-H226 = system: NCI-H226
NCI-H23 = system: NCI-H23
NCI-H460 = system: NCI-H460
NCI-H522 = system: NCI-H522
NCI/ADR-RES = system: NCI/ADR-RES
OVCAR-3 = system: OVCAR-3
OVCAR-4 = system: OVCAR-4
OVCAR-5 = system: OVCAR-5
OVCAR-8 = system: OVCAR-8
PC-3 = system: PC-3
RPMI-8226 = system: RPMI-8226
RXF 393 = system: RXF 393
SF-268 = system: SF-268
SF-295 = system: SF-295
SF-539 = system: SF-539
SK-MEL-28 = system: SK-MEL-28
SK-MEL-2 = system: SK-MEL-2
SK-MEL-5 = system: SK-MEL-5
SK-OV-3 = system: SK-OV-3
SN12C = system: SN12C
SNB-19 = system: SNB-19
SNB-75 = system: SNB-75
SR = system: SR
SW-620 = system: SW-620
T47D = system: T47D
TK-10 = system: TK-10
U-251 = system: U-251
UACC-257 = system: UACC-257
UACC-62 = system: UACC-62
UO-31 = system: UO-31
HCC 2998 = system: HCC 2998

SMILES: CCOC(=O)/C=C(/OCC)[C@@H]1C(C(=O)c2ccc(Cl)cc2)[C@H]1/C(=C\C(=O)OCC)OCC (stereo partly drawn)
- GI50 (786-0): > 100 µM (inactive)
- GI50 (A498): > 100 µM (inactive)
- GI50 (A549): > 100 µM (inactive)
- GI50 (ACHN): > 100 µM (inactive)
- GI50 (BT-549): > 100 µM (inactive)
- GI50 (CAKI-1): > 100 µM (inactive)
- GI50 (CCRF-CEM): 57.4 µM (inactive)
- GI50 (COLO 205): 95.3 µM (inactive)
- GI50 (DU-145): > 100 µM (inactive)
- GI50 (EKVX): > 100 µM (inactive)
- GI50 (HCT-116): 15.5 µM (inactive)
- GI50 (HCT-15): > 100 µM
- GI50 (HL-60): 5.87 µM (inactive)
- GI50 (HOP-62): > 100 µM (inactive)
- GI50 (HOP-92): > 34.7 µM (inactive)
- GI50 (HT-29): > 51.2 µM (inactive)
- GI50 (Hs-578T): > 100 µM (inactive)
- GI50 (IGROV-1): > 100 µM (inactive)
- GI50 (K562): 4.55 µM (inactive)
- GI50 (KM12): 56.9 µM (inactive)
- GI50 (LOX IMVI): > 100 µM (inactive)
- GI50 (M14): > 100 µM (inactive)
- GI50 (MCF7): > 100 µM (inactive)
- GI50 (MDA-MB-231): > 44.4 µM (inactive)
- GI50 (MDA-MB-435): > 100 µM (inactive)
- GI50 (MDA-N): > 100 µM (inactive)
- GI50 (MOLT-4): > 20.5 µM (inactive)
- GI50 (Malme-3M): > 100 µM (inactive)
- GI50 (NCI-H226): > 100 µM (inactive)
- GI50 (NCI-H23): > 76.9 µM (inactive)
- GI50 (NCI-H460): > 100 µM (inactive)
- GI50 (NCI-H522): > 45.2 µM (inactive)
- GI50 (NCI/ADR-RES): 29 µM (inactive)
- GI50 (OVCAR-3): > 100 µM (inactive)
- GI50 (OVCAR-4): > 100 µM (inactive)
- GI50 (OVCAR-5): > 100 µM (inactive)
- GI50 (OVCAR-8): > 100 µM (inactive)
- GI50 (PC-3): > 30.5 µM (inactive)
- GI50 (RPMI-8226): 5.35 µM (inactive)
- GI50 (RXF 393): 96.8 µM (inactive)
- GI50 (SF-268): > 100 µM (inactive)
- GI50 (SF-295): > 33.8 µM (inactive)
- GI50 (SF-539): > 100 µM (inactive)
- GI50 (SK-MEL-28): > 100 µM (inactive)
- GI50 (SK-MEL-2): > 100 µM (inactive)
- GI50 (SK-MEL-5): 24.9 µM (inactive)
- GI50 (SK-OV-3): > 100 µM (inactive)
- GI50 (SN12C): > 100 µM (inactive)
- GI50 (SNB-19): > 100 µM (inactive)
- GI50 (SNB-75): 25.5 µM (inactive)
- GI50 (SR): 8.73 µM (inactive)
- GI50 (SW-620): > 100 µM (inactive)
- GI50 (T47D): > 72.9 µM (inactive)
- GI50 (TK-10): > 40.5 µM (inactive)
- GI50 (U-251): > 100 µM (inactive)
- GI50 (UACC-257): > 100 µM (inactive)
- GI50 (UACC-62): > 30.7 µM (inactive)
- GI50 (UO-31): 8.79 µM (inactive)

SMILES: Cc1cc(C)nc(NS(=O)(=O)c2ccc(NNc3c4ccccc4nc4c(C(=O)Nc5ccc(S(=O)(=O)Nc6cc(C)on6)cc5)cccc34)cc2)n1
- GI50 (786-0): 51.6 µM (inactive)
- GI50 (A549): > 100 µM (inactive)
- GI50 (ACHN): 31.3 µM (inactive)
- GI50 (BT-549): 72.1 µM (inactive)
- GI50 (CAKI-1): 87.5 µM (inactive)
- GI50 (CCRF-CEM): 23.1 µM (inactive)
- GI50 (COLO 205): 36.4 µM (inactive)
- GI50 (DU-145): 49.2 µM (inactive)
- GI50 (EKVX): 19.2 µM (inactive)
- GI50 (HCC 2998): 23.2 µM (inactive)
- GI50 (HCT-116): 31.3 µM (inactive)
- GI50 (HCT-15): 51.1 µM
- GI50 (HL-60): 30.8 µM (inactive)
- GI50 (HOP-62): 82 µM (inactive)
- GI50 (HOP-92): 23.7 µM (inactive)
- GI50 (HT-29): 23.2 µM (inactive)
- GI50 (Hs-578T): 51.4 µM (inactive)
- GI50 (IGROV-1): 29 µM (inactive)
- GI50 (K562): 34.5 µM (inactive)
- GI50 (KM12): 39.4 µM (inactive)
- GI50 (LOX IMVI): 32.3 µM (inactive)
- GI50 (M14): 53.2 µM (inactive)
- GI50 (MCF7): 50.8 µM (inactive)
- GI50 (MDA-MB-231): 33.1 µM (inactive)
- GI50 (MDA-MB-435): 41.5 µM (inactive)
- GI50 (MDA-N): 44.2 µM (inactive)
- GI50 (MOLT-4): 32.5 µM (inactive)
- GI50 (Malme-3M): 53.7 µM (inactive)
- GI50 (NCI-H226): 25.8 µM (inactive)
- GI50 (NCI-H23): 46.8 µM (inactive)
- GI50 (NCI-H460): 40.9 µM (inactive)
- GI50 (NCI-H522): 28.2 µM (inactive)
- GI50 (NCI/ADR-RES): > 100 µM (inactive)
- GI50 (OVCAR-3): 20.4 µM (inactive)
- GI50 (OVCAR-4): 46.3 µM (inactive)
- GI50 (OVCAR-5): 23.9 µM (inactive)
- GI50 (OVCAR-8): 35.6 µM (inactive)
- GI50 (PC-3): 34.8 µM (inactive)
- GI50 (RPMI-8226): 42.9 µM (inactive)
- GI50 (RXF 393): 44.1 µM (inactive)
- GI50 (SF-268): 27.4 µM (inactive)
- GI50 (SF-295): 57.1 µM (inactive)
- GI50 (SF-539): 34.9 µM (inactive)
- GI50 (SK-MEL-2): 22.7 µM (inactive)
- GI50 (SK-MEL-5): 31.3 µM (inactive)
- GI50 (SK-OV-3): 29 µM (inactive)
- GI50 (SN12C): 37 µM (inactive)
- GI50 (SNB-19): 48 µM (inactive)
- GI50 (SNB-75): 30.9 µM (inactive)
- GI50 (SR): 24.9 µM (inactive)
- GI50 (SW-620): 39.5 µM (inactive)
- GI50 (T47D): 33.5 µM (inactive)
- GI50 (TK-10): 54.1 µM (inactive)
- GI50 (U-251): 26.7 µM (inactive)
- GI50 (UACC-257): 73.6 µM (inactive)
- GI50 (UACC-62): 46.3 µM (inactive)
- GI50 (UO-31): 34.7 µM (inactive)

SMILES: O=C(O)Cn1ccc(=O)c2c([N+](=O)[O-])cccc21
- GI50 (786-0): > 100 µM (inactive)
- GI50 (A498): > 100 µM (inactive)
- GI50 (A549): > 100 µM (inactive)
- GI50 (ACHN): > 100 µM (inactive)
- GI50 (BT-549): > 100 µM (inactive)
- GI50 (CAKI-1): > 100 µM (inactive)
- GI50 (CCRF-CEM): > 100 µM (inactive)
- GI50 (COLO 205): > 100 µM (inactive)
- GI50 (DU-145): > 100 µM (inactive)
- GI50 (HCC 2998): > 100 µM (inactive)
- GI50 (HCT-116): > 100 µM (inactive)
- GI50 (HCT-15): > 100 µM
- GI50 (HL-60): > 100 µM (inactive)
- GI50 (HOP-62): > 100 µM (inactive)
- GI50 (HT-29): > 100 µM (inactive)
- GI50 (Hs-578T): > 100 µM (inactive)
- GI50 (IGROV-1): > 100 µM (inactive)
- GI50 (K562): > 100 µM (inactive)
- GI50 (KM12): > 100 µM (inactive)
- GI50 (M14): > 100 µM (inactive)
- GI50 (MCF7): > 100 µM (inactive)
- GI50 (MDA-MB-231): > 100 µM (inactive)
- GI50 (MDA-MB-435): > 100 µM (inactive)
- GI50 (MDA-N): > 100 µM (inactive)
- GI50 (MOLT-4): > 100 µM (inactive)
- GI50 (Malme-3M): > 100 µM (inactive)
- GI50 (NCI-H226): > 100 µM (inactive)
- GI50 (NCI-H23): > 100 µM (inactive)
- GI50 (NCI-H460): > 100 µM (inactive)
- GI50 (NCI-H522): > 100 µM (inactive)
- GI50 (NCI/ADR-RES): > 100 µM (inactive)
- GI50 (OVCAR-3): > 100 µM (inactive)
- GI50 (OVCAR-5): > 100 µM (inactive)
- GI50 (OVCAR-8): > 100 µM (inactive)
- GI50 (PC-3): > 100 µM (inactive)
- GI50 (SF-268): > 100 µM (inactive)
- GI50 (SF-295): > 100 µM (inactive)
- GI50 (SF-539): > 100 µM (inactive)
- GI50 (SK-MEL-28): > 100 µM (inactive)
- GI50 (SK-MEL-2): > 100 µM (inactive)
- GI50 (SK-MEL-5): > 100 µM (inactive)
- GI50 (SK-OV-3): > 100 µM (inactive)
- GI50 (SN12C): > 100 µM (inactive)
- GI50 (SNB-19): > 100 µM (inactive)
- GI50 (SNB-75): > 100 µM (inactive)
- GI50 (SR): > 100 µM (inactive)
- GI50 (SW-620): > 100 µM (inactive)
- GI50 (T47D): > 100 µM (inactive)
- GI50 (TK-10): > 100 µM (inactive)
- GI50 (U-251): > 100 µM (inactive)
- GI50 (UACC-257): > 100 µM (inactive)
- GI50 (UACC-62): > 100 µM (inactive)
- GI50 (UO-31): > 100 µM (inactive)
